Test results taken from patent publication US7888380B2, “1,2,4-Triazolylaminoaryl (heteroaryl) sulfonamide derivatives” (Janssen Pharmaceutica, N.V., priority 2004, dated 2011).

Legend:
CDK2:Cyclin-E = CDK2:Cyclin-E (Homo sapiens, UniProt P24941); assay: CDK2 Screening Assay (33P-ATP FlashPlate); format: biochemical; details: 10 μM ATP; >10 or >100 = less than 50% inhibition at highest concentration tested
Experimental: A kinase reaction mixture was prepared containing 50 mM Tris-HCl pH=8, 10 mM MgCl2, 0.1 mM Na3PO4, 1 mM DTT, 10 μM ATP, 0.025 μM biotinylated histone-H1 peptide substrate and 0.2 μCuries per well ^33P-γ-ATP (2000-3000 Ci/mmol). 70 μL of the kinase reaction mixture was dispensed into the well of a streptavidin coated FlashPlate™ (Cat. # SMP103, NEN, Boston, Mass.). Then 1 μL of test compound stock in 100% DMSO was added to the wells resulting in a final concentration of 1% DMSO in the reaction with a 100 μl final reaction volume. Next, CDK2:Cyclin-E protein was diluted in 50 mM Tris-HCl pH=8.0, 0.1% BSA at a concentration of 1 ng per μL and 30 μL (30 ng enzyme per test well) was added to each well to initiate the reaction. The reaction was incubated for one hour at 30° C. At the end of the 1 h incubation, the reaction was terminated by aspirating the mixture from the plate and washing the wells twice with PBS containing 100 mM EDTA. The histone-H1 biotinylated peptide substrate became immobilized on the Flashplate™ and the incorporation of ^33P-γ-ATP was measured by reading the plate on a scintillation counter. Inhibition of the enzymatic activity of CDK2 was measured by observing a reduced amount of ^33P-γ-ATP incorporated into the immobilized peptide. […]

VEGF-R2 kinase = target: T1, VEGF-R2 kinase (Rattus norvegicus, UniProt O08775); assay: VEGF-R2 Kinase Screening Assay; format: biochemical; details: 10 μM ATP; rat VEGF-R2 kinase domain; read-out: IC50 (μM) VEGFR
T1 construct: 6xHis (polyhistidine) (N)
T1 sequence (O08775 786-1343): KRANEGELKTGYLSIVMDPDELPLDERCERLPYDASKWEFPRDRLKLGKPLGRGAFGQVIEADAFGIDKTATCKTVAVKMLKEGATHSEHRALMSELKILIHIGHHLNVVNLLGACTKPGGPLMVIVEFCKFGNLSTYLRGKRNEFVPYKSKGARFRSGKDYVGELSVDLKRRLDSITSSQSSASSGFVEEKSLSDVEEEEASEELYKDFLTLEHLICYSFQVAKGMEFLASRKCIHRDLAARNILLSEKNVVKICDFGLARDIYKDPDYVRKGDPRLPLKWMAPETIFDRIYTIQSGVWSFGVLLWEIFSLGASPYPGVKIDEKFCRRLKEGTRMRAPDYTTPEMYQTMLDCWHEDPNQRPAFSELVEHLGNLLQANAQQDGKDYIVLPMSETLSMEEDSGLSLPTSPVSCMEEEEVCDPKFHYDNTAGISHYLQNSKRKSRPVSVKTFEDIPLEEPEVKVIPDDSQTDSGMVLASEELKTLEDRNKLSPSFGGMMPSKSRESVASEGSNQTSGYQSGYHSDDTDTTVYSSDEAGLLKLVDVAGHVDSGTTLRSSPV
Experimental: A kinase reaction mixture was prepared containing 50 mM Tris-HCl pH=8, 10 mM MgCl2, 0.1 mM Na3PO4, 1 mM DTT, 10 μM ATP, 0.025 μM biotinylated peptide substrate and 0.8 μCuries per well ^33P-γ-ATP (2000-3000 Ci/mmol). 70 μL of the kinase reaction mixture was dispensed into each well of a streptavidin coated FlashPlate™ (Cat. # SMP103, NEN, Boston, Mass.). Then 1 μL of test compound stock in 100% DMSO was added to the wells resulting in a final concentration of 1% DMSO in the reaction with a 100 μL final reaction volume. Next, soluble rat tyrosine kinase containing an N-terminal 6×HIS tag was diluted in 50 mM Tris-HCl pH=8.0, 0.1% BSA at a concentration of 5 ng per μL and 30 μL (150 ng enzyme per test well) was added to each well to initiate the reaction. The reaction was incubated for one hour at 30° C. At the end of the 1 h incubation, the reaction was terminated by aspirating the reaction mixture from the plate and washing the wells twice with PBS containing 100 mM EDTA. The PLC1 biotinylated peptide substrate became immobilized on the Flashplate™ and the incorporation of ^33P-γ-ATP was measured by reading the plate on a scintillation counter. Inhibition of the enzymatic activity of the VEGF-R2 kinase was measured by observing a reduced amount of ^33P-γ-ATP incorporated into the immobilized peptide.
VEGF-R (vascular endothelial growth factor receptor-2) is a fusion protein containing a polyhistidine tag at the N-terminus followed by amino acids 786-1343 of the rat VEGF-R2 kinase domain (GenBank Accession #U93306). CDK1 (cyclin dependent kinase 1) was isolated from insect cells expressing both the human CDK1 catalytic subunit and its positive regulatory subunit cyclin B (New England Biolabs, Beverly, Mass., Cat. # 6020). CDK2 in complex with cyclin A is commercially available (Upstate Biotech, Lake Placid, N.Y.). The HER2 (human epidermal growth factor receptor-2) construct contains a polyhistidine tag at the N-terminus followed by 24 additional amino acids and begins at amino acid 676 followed by the remainder of the HER2 cytoplasmic domain.

HCT-116 colon carcinoma = assay: Inhibition of cell proliferation (14C-thymidine incorporation), HCT116; format: cell-based, human; details: Homo sapiens, HCT-116
Experimental: The ability of a test compound to inhibit the proliferation of cell growth was determined by measuring incorporation of ^14C-labelled thymidine into newly synthesized DNA within the cells. This method was used on cell lines derived from carcinomas originating from several tissues such as HeLa cervical adenocarcinoma (American Type Culture Collection (ATCC), Virginia, Cat. #CCL-2), A375 malignant melanoma (ATCC CRL-1619), and HCT-116 colon carcinoma (CCL-247). In this way the effect of a compound on cell growth of cells with many different phenotypes can be determined. Cells were trypsinized and counted and 3000-8000 cells were added to each well of a 96-well CytoStar tissue culture treated scintillating microplate (Amersham #RPNQ0160) in complete medium in a volume of 100 μl. Cells were incubated for 24 hours in complete medium at 37° C. in an atmosphere containing 5% CO2.
Next, 1 μl of test compound in 100% DMSO was added to the wells of the plate. DMSO only was added to control wells. Cells were incubated for 24 more hours in complete medium at 37° C. in an atmosphere containing 5% CO2. Methyl ^14C-thymidine 56 mCi/mmol (NEN #NEC568 or Amersham #CFA532) was diluted in complete medium and 0.2 uCi/well was added to each well of the CytoStar plate in a volume of 20 ul. The plate was incubated for 24 hours at 37° C. plus 5% CO2 in drug plus ^14C-thymidine. The contents of the plate were discarded into a ^14C radioactive waste container by inverting the plate and the plate was washed twice with 200 μl PBS.
200 μl of PBS was added to each well. The top of the plate was sealed with a transparent plate sealer and a white plate backing sealer (Packard #6005199) was applied to the bottom of the plate. The degree of methyl ^14C-thymidine incorporation was quantified on a Packard Top Count.

SMILES | IC50 (CDK2:Cyclin-E) [µM] | IC50 (VEGF-R2 kinase) [µM] | IC50 (HCT-116 colon carcinoma) [µM]
COCCOCC(=O)NS(=O)(=O)c1ccc(Nc2nc(N)n(C(=O)c3c(F)cccc3F)n2)cc1 [Compound 3, 4-[5-amino-1-(2,6-difluoro-benzoyl)-1H-[1,2,4]triazol-3-ylamino]-N-[2-(2-methoxy-ethoxy)-acetyl]-benzenesulfonamide] | 0.25 | 2.56 | > 10
NCC(=O)NS(=O)(=O)c1ccc(Nc2nc(N)n(C(=O)c3c(F)cccc3F)n2)cc1 [Compound 2, N-(2-amino-acetyl)-4-[5-amino-1-(2,6-difluoro-benzoyl)-1H-[1,2,4]triazol-3-ylamino]-benzenesulfonamide] | 0.12 | 1.97 | 37
C[C@@H](N)C(=O)NS(=O)(=O)c1ccc(Nc2nc(N)n(C(=O)c3c(F)cccc3F)n2)cc1 [Compound 14, 4-[5-amino-1-(2,6-difluoro-benzoyl)-1H-[1,2,4]triazol-3-ylamino]-N—((R)-2-amino-propionyl)-benzenesulfonamide] | 0.06 | 0.89 | 38.5
